Experimental data: publication PMC13231921 (Antimicrobial Agents and Chemotherapy, 2026)

Assay: Pharmacokinetics of GST-HG171 and ritonavir in plasma, alone and co-administered with itraconazole (drug-drug interaction study)
Conditions: Day 3, N = 12, median (minimum, maximum)

## CC(C)c1nc(CN(C)C(=O)N[C@H](C(=O)N[C@@H](Cc2ccccc2)C[C@H](O)[C@H](Cc2ccccc2)NC(=O)OCc2cncs2)C(C)C)cs1 [Ritonavir, ritonavir]
  Tmax: 2.50 (2.0008, 3.0011) h
